In brackets after ≈: the same amount, converted by molar mass. Where two headings read alike, the source gives them in different places. Where a SMILES comes first, the peptide text is derived from it. Where no end group is shown, it is not given here. [ ]: non-standard residue; d: D form.
Experiments:
[1] = system: HEK293 cells; experiment: Cell viability assay by AlamarBlue, HEK293 cells (model for non-cancer cells); type: cell-based; settings: 72 h incubation at 37 °C in DMEM high glucose medium with 10 % FBS; read-out: Toxicity IC50 HEK 293
Description: (§2) To measure potential ACP activity, we exposed HeLa cells to 50 μM of each peptide for 72 h and quantified remaining live cells with Alamar Blue. We performed full IC50 determination for active sequences under the same conditions and similarly profiled HEK293 cells as a model for non‐cancer cells.
(§3) Cell Viability assay by AlamarBlue. […] HEK‐293 were seeded into well plates, pretreated with solution of poly‐L‐Lysine. The medium was removed and the compounds at increasing concentration were added into the wells. The cells were incubated for 72 h in 200 μL/well at 37 °C in corresponding medium in the presence of 5 % CO2. After incubation time the medium was removed and replaced by 100 μL/well of medium containing 10 % AlamarBlue. The cells were incubated for 3–5 h at 37 °C with 5 % CO2 in a humidified atmosphere. The fluorescence was then measured on a Tecan Infinite M1000 Pro plate reader at λex 560 nm and λem 590 nm. The value was normalized according to the untreated cells.

[2] = system: HeLa cells; experiment: Cell viability assay by AlamarBlue, HeLa cells; type: cell-based; settings: 72 h incubation at 37 °C in DMEM high glucose medium with 10 % FBS; read-out: Toxicity IC50 HeLa
Description: as §2, §3

[3] = system: Acinetobacter baumannii (ATCC19606); type: cell-based
Description: (§1) […]. Minimal inhibitory concentration (MIC) determination. The minimal inhibitory concentration (MIC) was determined by using broth microdilution method. Antimicrobial activity was assayed against P. aeruginosa PAO1 (WT), Acinetobacter baumannii (ATCC19606). […]. The next day, 15 μL of MTT solution was added to each well of the plate, such a way that MIC was defined as the lowest concentration of the peptide that inhibited visible growth of the tested bacteria.

[4] = system: P. aeruginosa PAO1 (WT); type: cell-based, Pseudomonas aeruginosa
Description: as §1

[5] = system: human red blood cells (hRBC); settings: below 200 μM; cited from earlier work
[6] = system: human red blood cells (hRBC); experiment: Hemolysis assay on human red blood cells; type: cell-based
Text: Synthesis and bioactivity testing. We prepared the 33 selected peptides, as well as the reference ACP LL‐III, by semi‐automated high‐temperature Fmoc solid‐phase peptide synthesis and obtained pure samples by preparative HPLC. All peptides were well‐behaved in terms of aqueous solubility, in line with the presence of two to seven cationic residues (lysine or arginine) in each sequence (Table 1). […]. We performed full IC50 determination for active sequences under the same conditions and similarly profiled HEK293 cells as a model for non‐cancer cells. Finally, we determined peptide concentrations causing 50 % hemolysis (HC50) on human red blood cells (hRBC) by serial 2‐fold dilution.
Hemolysis assay. Compounds were subjected to a hemolysis assay to assess the hemolytic effect on human red blood cells (hRBCs). […]. Controls on each plate included a blank medium control (PBS 100 μL) and a hemolytic activity control (0.1 % Triton^TM X‐100). 100 μL of hRBC suspension was incubated with 100 μL of each sample in PBS in V‐shape 96‐well plate. […]. Hemolysis was measured by analyzing the absorbance of free hemoglobin leaked out of compromised in the supernatants at 540 nm with a plate reader (Tecan instrument Infinite M1000). The percentage of hemolysis at each concentration was detected and HC50 was determined.

[7] = incubation 16–20 h at 37 °C in MH medium
[8] = human red blood cells in 10 mM phosphate buffer saline, pH 7.4, 25 °C

## anwkkwigkviklvk [DB1]
[1]
  IC50: 13.1 ± 2.8 µM
[2]
  IC50: 6.2 ± 1.1 µM
[3]; [7]
  MIC A. baumannii: 2 µg/mL
[4]; [7]
  MIC PAO1: 4 µg/mL

## VNWKKILGKIIKVVK-NH2 [LL‐III, lasioglossin III]
[1]
  IC50: 15 ± 3 µM
[5]
  documented hemolysis: non‐hemolytic
[2]
  IC50: 6 ± 0.5 µM
[3]; [7]
  MIC A. baumannii: 4 µg/mL
[6]; [8]
  Hemolysis HC50 hRBC: >200 µM

## CC[C@@H](C)[C@@H](NC(=O)[C@@H](CCCCN)NC(=O)[C@@H](CCCCN)NC(=O)[C@@H](Cc1c[nH]c2ccccc12)NC(=O)[C@@H](CC(N)=O)NC(=O)[C@H](N)C(C)C)C(=O)N[C@H](CC(C)C)C(=O)NCC(=O)N[C@H](CCCCN)C(=O)N[C@@H](C(=O)N[C@@H](C(=O)N[C@H](CCCCN)C(=O)N[C@@H](C(=O)N[C@@H](C(=O)N[C@H](CCCCN)C(N)=O)C(C)C)C(C)C)[C@H](C)CC)[C@H](C)CC [DLL‐III, vnwkkilgkiikvvk] (H-[dV][dN][dW][dK][dK][dI][dL]G[dK][dI][dI][dK][dV][dV][dK]-NH2)
[1]
  IC50: 14.5 ± 2 µM
[2]
  IC50: 5 ± 0.7 µM
[3]; [7]
  MIC A. baumannii: 2 µg/mL (≈ 1.13 µM)
[4]; [7]
  MIC PAO1: 4 µg/mL (≈ 2.27 µM)
[6]; [8]
  Hemolysis HC50 hRBC: >200 µM

## C[C@@H](NC(=O)[C@H](N)Cc1ccccc1)C(=O)N[C@H](CCCCN)C(=O)N[C@H](CCCCN)C(=O)N[C@H](Cc1ccccc1)C(=O)N[C@H](Cc1ccccc1)C(=O)N[C@H](CCCCN)C(=O)N[C@H](CCCCN)C(=O)N[C@H](Cc1ccccc1)C(=O)N[C@H](C)C(=O)N[C@H](CCCCN)C(=O)N[C@H](Cc1ccccc1)C(=O)N[C@H](C)C(=O)N[C@H](Cc1ccccc1)C(=O)N[C@H](CCCCN)C(N)=O [DA1, fakkffkkfakfafk] (H-[dF][dA][dK][dK][dF][dF][dK][dK][dF][dA][dK][dF][dA][dF][dK]-NH2)
[1]
  IC50: 15 ± 2.3 µM
[2]
  IC50: 7.9 ± 0.3 µM
[3]; ATCC19606
  MIC A. baumannii: 4 µg/mL (≈ 2.12 µM)
[4]; PAO1
  MIC PAO1: 4 µg/mL (≈ 2.12 µM)
[6]; pH 7.4
  Hemolysis HC50 hRBC: >200 µM

From PMC9541320, “Machine Learning Guided Discovery of Non‐Hemolytic Membrane Disruptive Anticancer Peptides” (Chemmedchem, 2022)
